Experimental data as given in patent publication US6926890B2, “Non-invasive approach for assessing tumors in living animals” (priority 2000, dated 2005).
“Also recorded” adds a separate entry of the source.

Assays:
EMT6-CG-TK cells = assay: Ganciclovir treatment of intraperitoneal EMT6-CG-TK tumors monitored by urinary β-hCG; format: in vivo, Balb/c mice
Experimental: (§1) FIG. 5C. Urinary β-hCG levels before and after ganciclovir (GCV) treatment of intraperitoneal tumors. Five Balb/c mice were injected intraperitoneally with 4×10^6 EMT6-CG-TK cells (black symbols). They received a four-day course of ganciclovir (150 mg/kg/day), administered intraperitoneally beginning three days after tumor cell injection.
(§2) The β-hCG MAIAclone kit (Polymedco Inc. Cortlandt Manor, N.Y.), based on an immunoradiometric system, was used for quantitative determination of urinary β-hCG. Fifty μl of mouse urine samples diluted to achieve a final β-hCG concentration of 2.5-20 mIU/ml, standards, positive and negative controls were mixed with 0.5 ml of ^125I anti-hCG antibodies in 12×75 mm glass tubes (VWR Scientific, Boston, Mass.) and incubated at 37° C. for 15 min. […] The radioactivity of each sample was analyzed in a Gamma 5500 counter (Beckman, Fullerton, Calif.). […] Urinary β-hCG levels were normalized to urinary creatinine measured with a Roche Hitachi 917 analyzer (Roche Diagnostics, Indianapolis, Ind.). The ratio of β-hCG to creatinine was expressed as mIU β-hCG/mg creatinine.
(§3) Next the recombinant tumor system of the present invention was applied to a chemotherapeutic model. […] The difference between the kinetics of tumor cell death mediated by surgery and chemotherapy is readily evident through comparison of FIGS. 5A and 5C.

EMT6-CG tumors = assay: Ganciclovir treatment of control EMT6-CG tumors monitored by urinary β-hCG; format: in vivo, Balb/c mice; conditions: control EMT6-CG tumors without thymidine kinase
Experimental: as §1, §2, §3

[1] = Comparison of β-hCG concentrations in urine and serum of mice with subcutaneous B16-CG tumors; format: in vivo; conditions: serum 10-240 mIU/ml, six mice
Experimental: The β-hCG MAIAclone kit (Polymedco Inc. Cortlandt Manor, N.Y.), based on an immunoradiometric system, was used for quantitative determination of urinary β-hCG. Fifty μl of mouse urine samples diluted to achieve a final β-hCG concentration of 2.5-20 mIU/ml, standards, positive and negative controls were mixed with 0.5 ml of ^125I anti-hCG antibodies in 12×75 mm glass tubes (VWR Scientific, Boston, Mass.) and incubated at 37° C. for 15 min. Two hundred μl of the magnetic separation matrix provided with the kit was then added to each tube and incubated for 5 min at room temperature. The magnetic reagent with bound β-hCG was separated using a magnetic concentrator (Polymedco Inc.). The matrix was washed in 0.5 ml of the MAIAclone washing buffer provided with the kit and reseparated magnetically. The radioactivity of each sample was analyzed in a Gamma 5500 counter (Beckman, Fullerton, Calif.). The minimal detectable level of β-hCG was 2.5 mIU/ml. Urinary β-hCG levels were normalized to urinary creatinine measured with a Roche Hitachi 917 analyzer (Roche Diagnostics, Indianapolis, Ind.). The ratio of β-hCG to creatinine was expressed as mIU β-hCG/mg creatinine.
To determine whether β-hCG would be excreted in the urine of mice, as it is in pregnant women, the concentrations of β-hCG in urine and serum of mice with subcutaneous B16-CG tumors were compared. […]

[2] = Clearance of urinary β-hCG after surgical removal of subcutaneous SW480-CG tumors; format: in vivo, athymic (nu/nu) mice
Experimental: Female mice, 10-12 weeks old, were obtained from Harlan (Indianapolis, Ind.). For tail vein injections, 10^5 B 16-CG cells in 0.1 ml PBS were injected into C57BL/6 mice. For intraperitoneal administration, 2×10^6 EMT6-CG cells in 0.3 ml PBS were injected intraperitoneally into Balb/c mice. For intrasplenic injection, 10^6 B16-CG cells in 0.1 ml PBS were injected into the spleens of athymic (nu/nu) mice. For subcutaneous injection, 3×10^6 B16-CG cells or 8×10^6 SW480-CG cells in 0.1 ml PBS were injected into subcutaneous tissues adjacent to the lower spine of athymic (nu/nu) mice.
as §2, with “creatinine. […]” for “creatinine.”

Molecule | Urinary β-hCG levels after ganciclovir treatment (EMT6-CG-TK cells; ganciclovir 150 mg/kg/day intraperitoneally, four-day course beginning three days after tumor cell injection) | Necropsy finding after ganciclovir treatment (EMT6-CG-TK cells; necropsy after β-hCG declined to background) | Tumor response to ganciclovir (urinary β-hCG) (EMT6-CG tumors) | urine concentration relative to serum concentration of β-hCG [1] | half-life of urinary β-hCG ([2]; after surgical removal of SW480-CG tumors, eight animals) | Urinary β-hCG levels after tumor removal ([2]; subcutaneous SW480-CG tumors removed 18 days after implantation, within a day or two of removal)
Nc1nc(O)c2ncn(COC(CO)CO)c2n1 [ganciclovir] | began to decline one day after the start of ganciclovir treatment; also recorded: declined to background levels over the next five days | apparently tumor free, without ascites or peritoneal implants | did not respond; also recorded: continued to grow | – | – | –
β-hCG: β-subunit of human chorionic gonadotropin, glycoprotein hormone secreted by recombinant tumor cells as urinary marker (protein) SKEPLRPRCRPINATLAVEKEGCPVCITVNTTICAGYCPTMTRVLQGVLPALPQVVCNYRDVRFESIRLPGCPRGVNPVVSYAVALSCQCALCRRSTTDCGGPKDHPLTCDDPRFQDSSSSKAPPPSLPSPSRLPGPSDTPILPQ | – | – | – | 3.8±0.31 times the serum concentration | 11 ± 2.3 h | rapidly dropped to undetectable levels
